# Laboratory results from publication PMC10319809, “Chronic UCN2 treatment desensitizes CRHR2 and improves insulin sensitivity” (Nature Communications, 2023).
# Several values for one entry are separate records, joined by “and”; a condition that tells them apart may be missing. Equal entries are not always repeated. Where no end group is shown, it is not given here.
# What was measured:
# [1] = tested on: AKT1S1, IRS1, AKT phosphorylation; experiment: Western blot of p-AKT1S1, p-IRS1, p-AKT in gastrocnemius muscle; type: in vivo, mouse
# Description: Animal tissues were snap-frozen in liquid nitrogen and stored at −80 °C. Frozen tissues were homogenized in ice-cold RIPA buffer (Sigma Aldrich, St. Louis, MO), and protein concentrations were determined using a BCA protein assay (Thermo Fisher Scientific, Waltham, MA). Protein extracts were separated on NuPAGE 4–20% Bis-Tris gels (Bio-Rad, Hercules, CA) and blotted onto PVDF membranes (Bio-Rad, Hercules, CA). Membranes were blocked for 1 h at room temperature in TBST (0.1%) containing 5% milk. Membranes were then incubated overnight at 4 °C with primary antibodies against pSer183-AKT1S1, total AKT1S1, pSer3-IRS1, total IRS1, pSer473-AKT, and total AKT (Cell Signaling, Danvers, MA #5936, #2610, #2385, #2382, #4060, and #4691, respectively) diluted 1:1000. Following three washing steps with TBST (0.1%), membranes were incubated with HRP-conjugated secondary antibodies for 1 h at room temperature. After thorough washing, proteins were visualized with SuperSignal West Dura Extended Duration Substrate (Thermo Fisher Scientific, Waltham, MA) on the Bio-Rad ChemiDoc MP. Immunoreactive bands were quantified using Image J Software (NIH).
# hCRHR2α G13 = molecular target: T1, hCRHR2α G13 (Homo sapiens, UniProt Q13324); experiment: ebBRET EMTA, G13 biosensor; type: cell-based; settings: HEK293 cells, CRHR2a, n = 2 independent experiments
# T1 construct: expressed in transfected cells; host or cells: HEK293 cells (Millipore Sigma), transient PEI co-transfection with biosensor plasmids at Domain Therapeutics
# T1 sequence (Q13324 1-411): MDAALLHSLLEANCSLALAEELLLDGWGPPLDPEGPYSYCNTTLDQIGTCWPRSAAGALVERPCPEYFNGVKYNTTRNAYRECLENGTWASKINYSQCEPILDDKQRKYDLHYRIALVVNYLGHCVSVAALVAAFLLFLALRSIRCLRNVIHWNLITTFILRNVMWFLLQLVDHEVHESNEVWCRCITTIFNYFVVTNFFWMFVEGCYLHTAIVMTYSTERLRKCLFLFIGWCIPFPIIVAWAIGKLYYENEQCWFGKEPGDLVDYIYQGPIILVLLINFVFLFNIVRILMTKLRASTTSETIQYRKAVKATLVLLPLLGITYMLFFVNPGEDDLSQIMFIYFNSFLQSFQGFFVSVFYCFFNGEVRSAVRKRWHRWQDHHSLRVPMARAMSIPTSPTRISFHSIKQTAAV
# Description: Typically, GPCR desensitization is carried out through the recruitment of β-Arrestins or alternative G-proteins to the receptor. To identify whether these proteins are recruited to CRHR2 in response to UCN2, enhanced bystander bioluminescence resonance energy transfer (ebBRET)-based effector membrane translocation assays (EMTA) were carried out in HEK293 cells[28],[29]. Cells were co-transfected with plasmids expressing unmodified CRHR2a (alpha isoform) and one of various pathway-specific biosensors. […]
# Effector membrane translocation biosensor assays (bioSensAll®) were conducted at Domain Therapeutics NA Inc. (Montreal, QC, Canada) and described in cells[28],[29]. […] Briefly, DNA and PEI were diluted separately in 150 mM NaCl, mixed and then incubated for at least 20 min at room temperature (note: salmon sperm DNA (Invitrogen) was used to adjust the total amount of DNA transfected to a final quantity of 1 ug per mL of cell culture to be transfected). During the 20-minute incubation, HEK293 cells were detached, counted and resuspended into cell culture medium to a final density of 350,000 cells per mL. […] Cells were then incubated at room temperature for 10 min and BRET readings subsequently collected with a 0.4 s integration time on a Synergy NEO plate reader (BioTek Instruments, Inc., USA; filters: 400 nm/70 nm, 515 nm/20 nm). […]
substance,measurement,setting,value
"IVLSLDVPIGLLQILLEQARARAAREQATTNARILARVGHC-NH2 (C-terminus assumed) [UCN2, Urocortin 2]",Relative pAKT1s1/AKT1s1,"[1]; Fig 5F, UCN2 vs Saline, individual samples",0.4889 and 0.4355 and 0.6101 and 0.3366
same,Relative pIRS1/IRS1,"[1]; Fig 5G, UCN2 vs Saline, individual samples",0.5347 and 0.4912 and 0.4136 and 0.3459
same,Relative pAKT/AKT,"[1]; Fig 5H, UCN2 vs Saline, individual samples",0.5139 and 0.5838 and 0.5951 and 0.5852
same,"AKT1S1, IRS1 and AKT phosphorylation, acute treatment","[1]; gastrocnemius, acute UCN2, Western blot",dephosphorylation
same,G13 recruitment,hCRHR2α G13,not recruited
